Read-outs that look alike come from different tables or passages of the source.
What was measured:
[1] = Luminescence lifetime of the excited state; type: physicochemical; conditions: PBS
Text: 1.2.6 Luminescence lifetime
at room temperature with a Horiba Scientific FL-1065 (FluoroLog) using a pulse laser (486
nm) as the excitation source.
Lifetime of excited state (ns)

E. coli empty = conditions: 320 μM, 1 h
Protocol: (§1) In parallel, a control set was incubated without compounds for 50 min, followed by incubation with 75 μM meropenem trihydrate for 10 min. Cells were then pelleted, washed, resuspended in water, lysed, and clarified before LC-MS analysis.
(§2) 1.12 LC-MS accumulation assay
(§3) 1.12.1 Bacterial Strains and Growth Conditions:
(§4) Accumulation assay was performed two E. coli K-12 MG1655 strains transfected with pSU18 vector containing NDM-1 expression or an empty vector control. Cell growth was performed in Luria-Bertani (LB) broth (NaCl 10g/L, K2HPO4 6.3 g/L, KH2PO4 1.8 g/L, sodium citrate […]
(§5) 1.12.2 Preparation of Accumulation Assay Samples for LC-MS Analysis:
(§6) Assay was adapted from the work of Geddes et al. and Widya et al.9–11 E. coli MG1655 pSU18 NDM-1 and pSU18 Empty were grown from single colonies at 37 °C with aeration, while shaking at 180 rpm for 18 hours. The overnight suspensions were subcultured (1:100) in fresh LB and incubated to yield an OD600 of 0.55-0.60. The were harvested and pelleted at 3500 × g for 15 minutes at 4 °C. The pellets were washed with Meuller -Hinton II (MHII) broth and pelleted again under the same conditions. The pellets were resuspended in a n adjusted volume of fresh MHII to achieve an OD 600 ≈ 10.0. Shielded from ambient light, cells were incubated with 320 μM of metal complex for 1 hour while shaking at 180 rpm. Separately, another set of cells was incubated under identical conditions without any added metal complex. Cells […]
(§7) incubated with metal complex were maintained incubating under the same conditions for an additional 10 minutes, while the second set of cells was incubated with 75 μM of meropenem trihydrate for 10 minutes. After treatment, 10 μL of each cell suspension was taken and dilution 1:10 PBSA for OD600 viability analysis. A 150 μL aliquot of each cell suspension was layered onto 150 μL of cold silicone oil mixture (1:9, v/v AR20:High temperature silicone oil) and centrifuged at 3500 × g for 1 hour at 4 °C. The aqu eous and oil supernatant were carefully aspirated to isolate the cell pellets, which were resuspended in 50 μL of water and transferred to a fresh microplate. For lysis, a 1:1 (v/v) mixture of acetonitrile and methanol was added to each sample, and the sam ples were freeze thawed at -80 °C for approximately 18 hours.
(§8) Thawed samples were clarified by two rounds of centrifugation at 3500 × g for 1 hour at 4 °C, […]
(§9) External calibration curves were prepared by mixing compound at increasing concentration with extracted cell lysate (prepared in parallel to analyte containing samples) in concentrations […]
(§10) nM were also prepared to assess quantitative accuracy. Samples were submitted to LCMS analysis as biological triplicate using a single calibration curve. […]
(§11) was spiked into each calibration and analyte sampl e as an internal standard.

E. coli NDM-1 = conditions: 320 μM, 1 h
Protocol: as §1, §2, §3, §4, §5, §6, §7, §8, §9, §10, §11

RAW264.7 = conditions: RAW
[2] = tested on: seven mammalian cell lines; conditions: panel of seven mammalian cell lines including HepG2

With `F[P-](F)(F)(F)(F)F.F[P-](F)(F)(F)(F)F.[Ru+2].c1ccc(-c2ccccn2)nc1.c1ccc(-c2ccccn2)nc1.c1ccc(-n2cnc3c4cccnc4c4ncccc4c32)cc1` [Ru2, [Ru(2,2'-bipyridine)2(1-phenyl-imidazo[4,5,f][1,10]phenanthroline)](PF6)2] the “Luminescence lifetime of excited state” value [1] was 463 ns, the Accumulation (E. coli empty) was 405 nM/OD600 and the Accumulation (E. coli NDM-1) was 494 nM/OD600. For the same compound, the LD50 (HCT116; HCT116, 24 h) was greater than 50 µM, the LD50 (HCT116; HCT116, 48 h) was greater than 50 µM and the LD50 (RAW264.7; 24 h) was greater than 50 µM. The LD50 (RAW264.7; 48 h) was greater than 50 µM and the “Cytotoxicity (no cytotoxicity up to)” value [2] was greater than 50 µM.

— PMC12703741, “Light-Activated Metal-Dependent Protein Degradation: A Heterobifunctional Ruthenium(II) Photosensitizer Targeting New Delhi Metallo-β-lactamase 1” (Journal of the American Chemical Society, 2025)
